# Numbered stars: 1 amine (or outer) side, 2 acyl side, 3 side chain; on linkers, the order of the positions; unused ones are H or OH. Bridge positions count the residues as written; N and C are the ends. Square brackets hold non-standard residues; d marks the D form. Side chains are listed from the residue outwards. Peptide text beside a SMILES is read from it. I, II: the chains in the order shown. * marks the point of attachment. C18 diacid = O=C(O)CCCCCCCCCCCCCCCCC(=O)*; γGlu = O=C(O)[C@H](CCC(=O)[*:2])N[*:1]; Ac4c = NC1(C(=O)O)CCC1; AEEA = NCCOCCOCC(=O)O; Aib = CC(C)(N)C(=O)O
# Test: Thioflavin T (ThT) fibrillation assay for physical stability
# Type: physicochemical
# Settings: 250 μM in 10 mM HEPES buffer, pH 7.5, 37° C., shaking 960 rpm
# In short: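 Peptide at 250 μM in 10 mM HEPES pH 7.5 with 1 μM ThT, at 37° C with 960 rpm orbital shaking. Fluorescence (ex 444/em 485 nm) read every 20 min after 10 min pre-incubation; sigmoidal fit gives lag time (t0−2τ) and kapp (1/τ). Recovery is RP-HPLC peptide in the centrifuged, 0.22 μm-filtered supernatant as % of initial.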
row,THT assay Lag time (Ex. 76) [h],SMILES
1,45,"CC(C)C[C@H](NC(=O)[C@H](Cc1ccc(O)cc1)NC(=O)[C@H](CCCCN)NC(=O)[C@H](CO)NC(=O)[C@H](CC(C)C)NC(=O)[C@H](CC(=O)O)NC(=O)[C@H](CO)NC(=O)[C@@H](NC(=O)[C@H](Cc1ccccc1)NC(=O)[C@@H](NC(=O)CNC(=O)[C@H](Cc1c[nH]cn1)NC(=O)C1(NC(=O)[C@@H](N)Cc2c[nH]cn2)CCC1)[C@@H](C)O)[C@@H](C)O)C(=O)N[C@@H](CCC(=O)O)C(=O)N[C@@H](CO)C(=O)N[C@@H](CCCNC(=N)N)C(=O)N[C@@H](CCCNC(=N)N)C(=O)N[C@@H](C)C(=O)N[C@@H](CCC(N)=O)C(=O)N[C@@H](CC(=O)O)C(=O)N[C@@H](Cc1ccccc1)C(=O)N[C@H](C(=O)N[C@@H](CCC(N)=O)C(=O)N[C@@H](Cc1c[nH]c2ccccc12)C(=O)N[C@@H](CC(C)C)C(=O)N[C@@H](CC(C)C)C(=O)N[C@@H](CCCCNC(=O)CNC(=O)[C@H](CO)NC(=O)[C@H](CCC(=O)O)NC(=O)CNC(=O)[C@H](CO)NC(=O)CC[C@H](NC(=O)CC[C@H](NC(=O)CCCCCCCCCCCCCCCCC(=O)O)C(=O)O)C(=O)O)C(=O)N[C@H](C(N)=O)[C@@H](C)O)C(C)C [Example 35, N^ε28-[2-[[(2S)-2-[[(2S)-4-carboxy-2-[[2-[[(2S)-2-[[(4S)-4-carboxy-4-[[(4S)-4-carboxy-4-(17-carboxyheptadecanoylamino)butanoyl]amino]butanoyl]amino]-3-hydroxypropanoyl]amino]acetyl]amino]butanoyl]amino]-3-hydroxypropanoyl]amino]acetyl]-[Acb2,His3,Leu10,Glu15, Leu27,Lys28]-Glucagon amide] (I: H-H[Ac4c]HGTFTSDLSKYLESRRAQDFVQWLLKT-NH2 / II: {C18 diacid-γGlu-γGlu}-SGESG; amide I:28-II:C; N-terminus assumed)"
2,45,"CC(C)C[C@H](NC(=O)[C@H](Cc1ccc(O)cc1)NC(=O)[C@H](CCCCN)NC(=O)[C@H](CO)NC(=O)[C@H](CC(C)C)NC(=O)[C@H](CC(=O)O)NC(=O)[C@H](CO)NC(=O)[C@@H](NC(=O)[C@H](Cc1ccccc1)NC(=O)[C@@H](NC(=O)CNC(=O)[C@H](CCC(N)=O)NC(=O)C1(NC(=O)[C@@H](N)Cc2c[nH]cn2)CCC1)[C@@H](C)O)[C@@H](C)O)C(=O)N[C@@H](CCC(=O)O)C(=O)N[C@@H](CO)C(=O)N[C@@H](CCCCN)C(=O)N[C@@H](CCCNC(=N)N)C(=O)N[C@@H](C)C(=O)N[C@@H](CCCNC(=N)N)C(=O)N[C@@H](CCC(=O)O)C(=O)N[C@@H](Cc1ccccc1)C(=O)N[C@H](C(=O)N[C@@H](CCC(N)=O)C(=O)N[C@@H](Cc1c[nH]c2ccccc12)C(=O)N[C@@H](CC(C)C)C(=O)N[C@@H](CC(C)C)C(=O)N[C@@H](CCCCNC(=O)CNC(=O)[C@H](CO)NC(=O)[C@H](CCC(=O)O)NC(=O)CNC(=O)[C@H](CO)NC(=O)CC[C@H](NC(=O)CC[C@H](NC(=O)CCCCCCCCCCCCCCCCC(=O)O)C(=O)O)C(=O)O)C(=O)N[C@H](C(N)=O)[C@@H](C)O)C(C)C [Example 36, N^ε28-[2-[[(2S)-2-[[(2S)-4-carboxy-2-[[2-[[(2S)-2-[[(4S)-4-carboxy-4-[[(4S)-4-carboxy-4-(17-carboxyheptadecanoylamino)butanoyl]amino]butanoyl]amino]-3-hydroxypropanoyl]amino]acetyl]amino]butanoyl]amino]-3-hydroxypropanoyl]amino]acetyl]-[Acb2,Leu10,Glu15,Lys17, Arg20,Glu21,Leu27,Lys28]-Glucagon amide] (I: H-H[Ac4c]QGTFTSDLSKYLESKRAREFVQWLLKT-NH2 / II: {C18 diacid-γGlu-γGlu}-SGESG; amide I:28-II:C; N-terminus assumed)"
3,45,"CC(C)C[C@H](NC(=O)[C@H](Cc1ccc(O)cc1)NC(=O)[C@H](CCCCN)NC(=O)[C@H](CO)NC(=O)[C@H](CC(C)C)NC(=O)[C@H](CC(=O)O)NC(=O)[C@H](CO)NC(=O)[C@@H](NC(=O)[C@H](Cc1ccccc1)NC(=O)[C@@H](NC(=O)CNC(=O)[C@H](Cc1c[nH]cn1)NC(=O)C(C)(C)NC(=O)[C@@H](N)Cc1c[nH]cn1)[C@@H](C)O)[C@@H](C)O)C(=O)N[C@@H](CCC(=O)O)C(=O)N[C@@H](CO)C(=O)N[C@@H](CCCNC(=N)N)C(=O)N[C@@H](CCCNC(=N)N)C(=O)N[C@@H](C)C(=O)N[C@@H](CCCNC(=N)N)C(=O)N[C@@H](CC(=O)O)C(=O)N[C@@H](Cc1ccccc1)C(=O)N[C@H](C(=O)N[C@@H](CCC(N)=O)C(=O)N[C@@H](Cc1c[nH]c2ccccc12)C(=O)N[C@@H](CC(C)C)C(=O)N[C@@H](CC(C)C)C(=O)N[C@@H](CCCCNC(=O)CNC(=O)[C@H](CO)NC(=O)[C@H](CCC(=O)O)NC(=O)CNC(=O)[C@H](CO)NC(=O)CC[C@H](NC(=O)CC[C@H](NC(=O)CCCCCCCCCCCCCCCCC(=O)O)C(=O)O)C(=O)O)C(=O)N[C@H](C(N)=O)[C@@H](C)O)C(C)C [Example 37, N^ε28-[2-[[(2S)-2-[[(2S)-4-carboxy-2-[[2-[[(2S)-2-[[(4S)-4-carboxy-4-[[(4S)-4-carboxy-4-(17-carboxyheptadecanoylamino)butanoyl]amino]butanoyl]amino]-3-hydroxypropanoyl]amino]acetyl]amino]butanoyl]amino]-3-hydroxypropanoyl]amino]acetyl]-[Aib2,His3,Leu10,Glu15, Arg20,Leu27,Lys28]-Glucagon amide] (I: H-H[Aib]HGTFTSDLSKYLESRRARDFVQWLLKT-NH2 / II: {C18 diacid-γGlu-γGlu}-SGESG; amide I:28-II:C; N-terminus assumed)"
4,45,"CC(C)C[C@H](NC(=O)[C@H](Cc1ccc(O)cc1)NC(=O)[C@H](CCCCN)NC(=O)[C@H](CO)NC(=O)[C@H](CC(C)C)NC(=O)[C@H](CC(=O)O)NC(=O)[C@H](CO)NC(=O)[C@@H](NC(=O)[C@H](Cc1ccccc1)NC(=O)[C@@H](NC(=O)CNC(=O)[C@H](CCC(N)=O)NC(=O)C(C)(C)NC(=O)[C@@H](N)Cc1c[nH]cn1)[C@@H](C)O)[C@@H](C)O)C(=O)N[C@@H](CC(=O)O)C(=O)N[C@@H](C)C(=O)N[C@@H](CCCNC(=N)N)C(=O)N[C@@H](CCCNC(=N)N)C(=O)N[C@@H](C)C(=O)N[C@@H](CCCNC(=N)N)C(=O)N[C@@H](CCC(=O)O)C(=O)N[C@@H](Cc1ccccc1)C(=O)N[C@H](C(=O)N[C@@H](CCC(N)=O)C(=O)N[C@@H](Cc1c[nH]c2ccccc12)C(=O)N[C@@H](CC(C)C)C(=O)N[C@@H](CC(C)C)C(=O)N[C@@H](CC(N)=O)C(=O)N[C@@H](CCCCNC(=O)CC[C@H](NC(=O)CC[C@H](NC(=O)COCCOCCNC(=O)CC[C@H](NC(=O)CCCCCCCCCCCCCCCCC(=O)O)C(=O)O)C(=O)O)C(=O)O)C(N)=O)C(C)C [Example 39, N^ε29-[(4S)-4-carboxy-4-[[(4S)-4-carboxy-4-[[2-[2-[2-[[(4S)-4-carboxy-4-(17-carboxyheptadecanoylamino)butanoyl]amino]ethoxy]ethoxy]acetyl]amino]butanoyl]amino]butanoyl]-[Aib2,Leu10,Ala16,Arg20,Glu21,Leu27,Lys29]-Glucagon amide] (H-H[Aib]QGTFTSDLSKYLDARRAREFVQWLLNK([γGlu-γGlu-AEEA-γGlu-C18 diacid])-NH2; N-terminus assumed)"
5,40,"CC(C)C[C@H](NC(=O)[C@H](CC(C)C)NC(=O)[C@H](Cc1c[nH]c2ccccc12)NC(=O)[C@H](CCC(N)=O)NC(=O)[C@@H](NC(=O)[C@H](Cc1ccccc1)NC(=O)[C@H](CCC(=O)O)NC(=O)[C@H](CCCNC(=N)N)NC(=O)[C@H](C)NC(=O)[C@H](CCCNC(=N)N)NC(=O)[C@H](CCCNC(=N)N)NC(=O)[C@H](CO)NC(=O)[C@H](CCC(=O)O)NC(=O)[C@H](CC(C)C)NC(=O)[C@H](Cc1ccc(O)cc1)NC(=O)[C@H](CCCCN)NC(=O)[C@H](CO)NC(=O)[C@H](CC(C)C)NC(=O)[C@H](CC(=O)O)NC(=O)[C@H](CO)NC(=O)[C@@H](NC(=O)[C@H](Cc1ccccc1)NC(=O)[C@@H](NC(=O)CNC(=O)[C@H](CCC(N)=O)NC(=O)C(C)(C)NC(=O)[C@@H](N)Cc1c[nH]cn1)[C@@H](C)O)[C@@H](C)O)C(C)C)C(=O)N[C@@H](CC(N)=O)C(=O)N[C@@H](CCCCNC(=O)CC[C@H](NC(=O)CC[C@H](NC(=O)COCCOCCNC(=O)CC[C@H](NC(=O)CCCCCCCCCCCCCCCCC(=O)O)C(=O)O)C(=O)O)C(=O)O)C(N)=O [Example 40, N^ε29-[(4S)-4-carboxy-4-[[(4S)-4-carboxy-4-[[2-[2-[2-[[(4S)-4-carboxy-4-(17-carboxyheptadecanoylamino)butanoyl]amino]ethoxy]ethoxy]acetyl]amino]butanoyl]amino]butanoyl]-[Aib2,Leu10,Glu15,Arg20,Glu21,Leu27,Lys29]-Glucagon amide] (H-H[Aib]QGTFTSDLSKYLESRRAREFVQWLLNK([γGlu-γGlu-AEEA-γGlu-C18 diacid])-NH2; N-terminus assumed)"
6,45,"CC(C)C[C@H](NC(=O)[C@H](Cc1ccc(O)cc1)NC(=O)[C@H](CCCCN)NC(=O)[C@H](CO)NC(=O)[C@H](CC(C)C)NC(=O)[C@H](CC(=O)O)NC(=O)[C@H](CO)NC(=O)[C@@H](NC(=O)[C@H](Cc1ccccc1)NC(=O)[C@@H](NC(=O)CNC(=O)[C@H](CCC(N)=O)NC(=O)C(C)(C)NC(=O)[C@@H](N)Cc1c[nH]cn1)[C@@H](C)O)[C@@H](C)O)C(=O)N[C@@H](CCC(=O)O)C(=O)N[C@@H](CO)C(=O)N[C@@H](CCCNC(=N)N)C(=O)N[C@@H](CCCNC(=N)N)C(=O)N[C@@H](C)C(=O)N[C@@H](CCCNC(=N)N)C(=O)N[C@@H](CCC(=O)O)C(=O)N[C@@H](Cc1ccccc1)C(=O)N[C@H](C(=O)N[C@@H](CCC(N)=O)C(=O)N[C@@H](Cc1c[nH]c2ccccc12)C(=O)N[C@@H](CC(C)C)C(=O)N[C@@H](CC(C)C)C(=O)N[C@@H](CCCCNC(=O)CC[C@H](NC(=O)CC[C@H](NC(=O)CC[C@H](NC(=O)CCCCCCCCCCCCCCCCC(=O)O)C(=O)O)C(=O)O)C(=O)O)C(=O)N[C@H](C(N)=O)[C@@H](C)O)C(C)C [Example 41, N^ε28-[(4S)-4-carboxy-4-[[(4S)-4-carboxy-4-[[(4S)-4-carboxy-4-(17-carboxyheptadecanoylamino)butanoyl]amino]butanoyl]amino]butanoyl]-[Aib2,Leu10,Glu15, Arg20,Glu21,Leu27,Lys28]-Glucagon amide] (H-H[Aib]QGTFTSDLSKYLESRRAREFVQWLLK([γGlu-γGlu-γGlu-C18 diacid])T-NH2; N-terminus assumed)"
